For this data set the following is noted: 101.33 kPa, Liquid; for speed of sound: Sing-around technique in a fixed-path interferometer; for mass density: Vibrating tube method.

Numbers after ± are expanded uncertainties.

This is an account of results in the NIST ThermoML archive (doi:10.1016/j.jct.2013.10.018).

For `CCCCCCCCO` [octan-1-ol], the speed of sound – broadly, how fast a sound wave travels through the sample – was 1349 ± 3 m/s (298.15 K); 1332 ± 3 m/s (303.15 K); 1315 ± 3 m/s (308.15 K); 1299 ± 3 m/s (313.15 K); 1282 ± 3 m/s (318.15 K); 1265 ± 3 m/s (323.15 K). Further, the mass density (in general, the mass of a sample divided by its volume) came out at 821.74 ± 0.26 kg/m3 (298.15 K); 818.26 ± 0.26 kg/m3 (303.15 K); 814.76 ± 0.26 kg/m3 (308.15 K); 811.24 ± 0.26 kg/m3 (313.15 K); 807.69 ± 0.26 kg/m3 (318.15 K); 804.12 ± 0.26 kg/m3 (323.15 K).
As to `CCCCCCCCCCO` [decan-1-ol], the speed of sound is, setting by setting: (298.15 K) 1380 ± 3 m/s; (303.15 K) 1363 ± 3 m/s; (308.15 K) 1346 ± 3 m/s; (313.15 K) 1329 ± 3 m/s; (318.15 K) 1312 ± 3 m/s; (323.15 K) 1296 ± 3 m/s. The mass density by setting is: (298.15 K) 826.36 ± 0.24 kg/m3; (303.15 K) 822.88 ± 0.24 kg/m3; (308.15 K) 819.43 ± 0.24 kg/m3; (313.15 K) 815.97 ± 0.24 kg/m3; (318.15 K) 812.49 ± 0.24 kg/m3; (323.15 K) 809.03 ± 0.24 kg/m3.
